Source: patent US9669051B2, “Dietary fiber compositions with metformin, sitagliptin, or a combination thereof for the treatment of metabolic disease” (Inovobiologic Inc., priority 2012, dated 2017)

Legend:
Zucker FA/FA Rat Model [1] = assay: Example 7: lipid determinations; assay type: in vivo; conditions: finding in words, with reference to the cellulose control; listed as JANUVIA alone
Experimental: (§1) A blood sample was collected via retroorbital bleed (under isoflurane anesthesia) during the takedown phase. A portion of this sample was tested for lipid concentrations (total, LDL, and HDL cholesterol and triglycerides) using an analyzer (e.g., Polymer Technology Systems CardioChek PA). Plasma was separated by centrifugation and flash-frozen for DPPIV activity determination. The remainder was prepared for comprehensive clinical chemistry analysis.

Zucker FA/FA Rat Model [2] = assay: Example 7: body weight and food consumption; assay type: in vivo
Experimental: 44 young adult (9 week old) male rats (Zucker ZDF/Crl-Lepr^fa/fa), were obtained from Charles River Laboratories, Kingston, N.Y. […] The rats were housed in cages which conformed to size standards in Guide for the Care and Use of Laboratory Animals (Nat'l Res. Council, 1996). Bedding was changed at least twice per week. The animals were maintained at a temperature range of 18-22° C., humidity 44-68%, and a photoperiod of 12 hour light/dark cycle. The rats were acclimated for 4 days prior to the start of the study. Each animal was given a sequential number and was uniquely identified with a stainless steel ear tag or other appropriate, permanent method. Morbidity and mortality checks were carried out twice daily during the study. The animals were randomly assigned to one of four groups: (1) Control 5% cellulose fiber/chow [C]; (2) 5% PGX/chow [PGX]; […] Filtered tap water was available ad libitum. The test diets were nearly isoenergetic (PGX diet provided 3.98 kcal/g and cellulose diet provided 3.90 kcal/g). […] Sitagliptin was administered in the morning, with samples and data collected after treatment.

Zucker FA/FA Rat Model [3] = assay: Example 7: clinical chemistry of terminal blood sample; assay type: in vivo
Experimental: as §1

Zucker FA/FA Rat Model [4] = assay: Example 7: body composition by dual-energy X-ray absorptiometry (DEXA); assay type: in vivo
Experimental: Body composition was measured using dual-energy X-ray absorptiometry (DEXA) of the carcasses at the end of the study (i.e., after a limited necropsy for histopathology samples). The primary endpoints were fat mass, lean mass and bone mineral density. Tissue composition (i.e., % body fat) and fat free mass were also reported, but the information on these measurements was redundant with other measures.

Zucker FA/FA Rat Model [5] = assay: Example 7: non-fasted and 16 h fasted blood glucose; assay type: in vivo
Experimental: Glucose concentrations were determined using a hand-held glucose meter (e.g., Bayer Asencia Elite). Blood was collected via tail nick following sitagliptin administration; one sample was collected when food was available for the previous 24 hours (non-fasted), and one sample was collected on another day when food was not available overnight (16 h fasted).

Zucker FA/FA Rat Model [6] = assay: Example 7: hemoglobin glycosylation (HbA1c); assay type: in vivo
Experimental: The extent of hemoglobin glycosylation was determined using a clinical analyzer (e.g., Bayer DCA2000). Blood samples for analysis were collected via tail nick.

Zucker FA/FA Rat Model [7] = assay: Example 7: fasted oral glucose tolerance test (OGTT), glucose and serum insulin; assay type: in vivo; conditions: week 6, 16 h fasted
Excerpt: The remainder of the sample was allowed to clot, and centrifuged to separate serum. Serum samples were frozen for insulin analysis.

Zucker FA/FA Rat Model [8] = assay: Example 7: necropsy histopathology of liver, kidney and pancreas; assay type: in vivo; conditions: week 7 necropsy
Experimental: Rats were fasted overnight and given their regular sitagliptin treatment in the morning. Following the in-life procedures, rats were anesthetized with isoflurane, and a blood sample was collected via cardiac puncture. No peptidase inhibitors were used. Following sample collection, a limited necropsy was performed. A section of ileum (approximately one inch, collected one inch rostral to the cecum) was rinsed in chilled saline and flash frozen; this sample was analyzed for DPPIV mRNA. One kidney was flash-frozen for DPPIV mRNA analysis; one liver lobe was flash frozen for DPPIV activity and mRNA analysis. The pancreas (collected as a pancreatic pluck, with associated tissue including the remainder of the intestine), one liver lobe and one kidney were post-fixed for staining with hematoxylin and eosin. One liver lobe was snap-frozen for staining with Sudan Black. The tissue samples were forwarded to Histo-Scientific Research Laboratories Inc. (Mount Jackson, Va.) for histological processing and for pathological evaluation by a board-certified pathologist. The pathology analysis was based on the gross and microscopic evaluation of the liver (two lobes), right kidney and pancreas from 39 male rats.

[9] = in words; cited from earlier work
[10] = finding in words, with reference to the cellulose control
[11] = finding in words, with reference to the cellulose control, listed as JANUVIA alone

**Q.** For `N[C@@H](CC(=O)N1CCn2c(nnc2C(F)(F)F)C1)Cc1cc(F)c(F)cc1F` [Cellulose-JANUVIA, (R)-4-oxo-4-[3-(trifluoromethyl)-5,6-dihydro[1,2,4]triazolo[4,3-a]pyrazin-7(8H)-yl]-1-(2,4,5-trifluorophenyl)butan-2-amine], which “total cholesterol (week 7)” value (Zucker FA/FA Rat Model [1]) is on record?
**A.** not effective to lower blood cholesterol

**Q.** And the Baseline body weight (Zucker FA/FA Rat Model [2]; Baseline)?
**A.** 297.9 ± 3.7 g

**Q.** And the Mean food consumption (Zucker FA/FA Rat Model [2]; averaged for each rat over the study)?
**A.** 22.9 ± 0.7 g/day

**Q.** What about the “Week 7 body weight” value (Zucker FA/FA Rat Model [2]; week 7) of the same compound?
**A.** 411.0 ± 16.1 g

**Q.** What about the “Serum ALT/SGPT (terminal)” value (Zucker FA/FA Rat Model [3]; [10]) of the same compound?
**A.** tended to decrease ALT activity

**Q.** And the “Serum albumin (terminal)” value (Zucker FA/FA Rat Model [3]; [10])?
**A.** did not increase albumin concentrations

**Q.** And the “Serum alkaline phosphatase (terminal)” value (Zucker FA/FA Rat Model [3]; [10])?
**A.** significantly reduced alkaline phosphatase activity

**Q.** And the “total serum protein (terminal)” value (Zucker FA/FA Rat Model [3]; [10])?
**A.** did not increase total protein concentrations

**Q.** And the “blood urea nitrogen (terminal)” value (Zucker FA/FA Rat Model [3]; [11])?
**A.** tended to decrease BUN

**Q.** And the Calcium (Zucker FA/FA Rat Model [3]; terminal blood sample, week 7)?
**A.** 11.2 ± 0.2 mg/dL

**Q.** What about the Creatine kinase (Zucker FA/FA Rat Model [3]; terminal blood sample, week 7) of the same compound?
**A.** 76.3 ± 12.8 IU/L

**Q.** And the Phosphorus (Zucker FA/FA Rat Model [3]; terminal blood sample, week 7)?
**A.** 6.0 ± 0.2 mg/dL

**Q.** What about the Fat free mass (Zucker FA/FA Rat Model [4]; DEXA at end of study) of the same compound?
**A.** 133.0 ± 5.6 g

**Q.** What about the “Tissue composition (% fat)” value (Zucker FA/FA Rat Model [4]; DEXA at end of study) of the same compound?
**A.** 63.3 ± 0.9 % fat

**Q.** And the “Lean Mass (terminal)” value (Zucker FA/FA Rat Model [4]; [11])?
**A.** did not show an effect on lean body mass

**Q.** What about the “16 h fasted blood glucose” value (Zucker FA/FA Rat Model [5]; Baseline) of the same compound?
**A.** 98.4 ± 5.4 mg/dL

**Q.** What about the Non-fasted blood glucose (Zucker FA/FA Rat Model [5]; Baseline) of the same compound?
**A.** 231.8 ± 31.2 mg/dL

**Q.** And the “16 h fasted blood glucose” value (Zucker FA/FA Rat Model [5]; Week 6)?
**A.** 331.1 ± 16.4 mg/dL

**Q.** What about the Non-fasted blood glucose (Zucker FA/FA Rat Model [5]; Week 6) of the same compound?
**A.** 500.9 ± 17.4 mg/dL

**Q.** What about the Hemoglobin glycosylation (Zucker FA/FA Rat Model [6]; Baseline) of the same compound?
**A.** 4.4 ± 0.1%

**Q.** What about the Hemoglobin glycosylation (Zucker FA/FA Rat Model [6]; Week 6) of the same compound?
**A.** 6.8 ± 0.4%

**Q.** What about the “OGTT serum insulin Baseline” value (Zucker FA/FA Rat Model [7]; before glucose) of the same compound?
**A.** 6.6 ± 1.1 ng/mL

**Q.** And the OGTT blood glucose Baseline (Zucker FA/FA Rat Model [7]; before glucose 1 g/kg PO)?
**A.** 331 ± 16.4 mg/dL

**Q.** What about the “OGTT serum insulin AUC(0-120), baseline-subt” value (Zucker FA/FA Rat Model [7]; glucose 1 g/kg PO) of the same compound?
**A.** -3.0 ± 22.7 ng·h/dL

**Q.** What about the “Kidney: degeneration/regeneration, tubules, group incidence” value (Zucker FA/FA Rat Model [8]; animals affected/examined) of the same compound?
**A.** 9/9

**Q.** What about the “Kidney: dilatation, tubules, group incidence” value (Zucker FA/FA Rat Model [8]; animals affected/examined) of the same compound?
**A.** 9/9

**Q.** And the “Kidney: dilation, renal pelvis, group incidence” value (Zucker FA/FA Rat Model [8]; animals affected/examined)?
**A.** 9/9

**Q.** And the “Kidney: inflammation, renal pelvis, group incidence” value (Zucker FA/FA Rat Model [8]; animals affected/examined)?
**A.** 2/9

**Q.** And the “Kidney: mesangial expansion, group incidence” value (Zucker FA/FA Rat Model [8]; animals affected/examined)?
**A.** 9/9

**Q.** And the “Kidney: mineralization, renal pelvis, group incidence” value (Zucker FA/FA Rat Model [8]; animals affected/examined)?
**A.** 2/9

**Q.** And the “Liver: Sudan black positive hepatocytes, group incidence” value (Zucker FA/FA Rat Model [8]; animals affected/examined)?
**A.** 9/9

**Q.** And the “Liver: cystic hepatocytes degeneration with fibrosis, group incidence” value (Zucker FA/FA Rat Model [8]; animals affected/examined)?
**A.** 1/9

**Q.** What about the “Liver: hepatic focal infarction, group incidence” value (Zucker FA/FA Rat Model [8]; animals affected/examined) of the same compound?
**A.** 1/9

**Q.** And the “Liver: vacuolation, hepatocytes, macrovesicular, group incidence” value (Zucker FA/FA Rat Model [8]; animals affected/examined)?
**A.** 7/9

**Q.** And the “Liver: vacuolation, hepatocytes, microvesicular, group incidence” value (Zucker FA/FA Rat Model [8]; animals affected/examined)?
**A.** 9/9

**Q.** What about the “Pancreas: fibrosis, islets, group incidence” value (Zucker FA/FA Rat Model [8]; animals affected/examined) of the same compound?
**A.** 9/9

**Q.** And the “Pancreas: hemorrhage/hemosiderin, islets, group incidence” value (Zucker FA/FA Rat Model [8]; animals affected/examined)?
**A.** 9/9

**Q.** And the “Pancreas: hypertrophy, islets, group incidence” value (Zucker FA/FA Rat Model [8]; animals affected/examined)?
**A.** 9/9

**Q.** And the “Pancreas: islet cell degeneration, group incidence” value (Zucker FA/FA Rat Model [8]; animals affected/examined)?
**A.** 9/9

**Q.** What about the “Pancreas: mononuclear cell infiltrate, islets, group incidence” value (Zucker FA/FA Rat Model [8]; animals affected/examined) of the same compound?
**A.** 9/9

**Q.** What about the “Pancreas: percent of islet area containing positive insulin positive cells” value (Zucker FA/FA Rat Model [8]; group average) of the same compound?
**A.** 40%

**Q.** What about the “Liver: Sudan black positive hepatocytes, group average score” value (Zucker FA/FA Rat Model [8]; score 0-5) of the same compound?
**A.** 2.8

**Q.** What about the “Kidney: degeneration/regeneration, tubules, group average score” value (Zucker FA/FA Rat Model [8]; severity score 0-5) of the same compound?
**A.** 2.3

**Q.** And the “Kidney: dilatation, tubules, group average score” value (Zucker FA/FA Rat Model [8]; severity score 0-5)?
**A.** 2.8

**Q.** And the “Kidney: dilation, renal pelvis, group average score” value (Zucker FA/FA Rat Model [8]; severity score 0-5)?
**A.** 2.3

**Q.** And the “Kidney: inflammation, renal pelvis, group average score” value (Zucker FA/FA Rat Model [8]; severity score 0-5)?
**A.** 0.8

**Q.** What about the “Kidney: mesangial expansion, group average score” value (Zucker FA/FA Rat Model [8]; severity score 0-5) of the same compound?
**A.** 2.1

**Q.** And the “Kidney: mineralization, renal pelvis, group average score” value (Zucker FA/FA Rat Model [8]; severity score 0-5)?
**A.** 0.2

**Q.** What about the “Liver: cystic hepatocytes degeneration with fibrosis, group average score” value (Zucker FA/FA Rat Model [8]; severity score 0-5) of the same compound?
**A.** 0.1

**Q.** And the “Liver: hepatic focal infarction, group average score” value (Zucker FA/FA Rat Model [8]; severity score 0-5)?
**A.** 0.2

**Q.** And the “Liver: vacuolation, hepatocytes, macrovesicular, group average score” value (Zucker FA/FA Rat Model [8]; severity score 0-5)?
**A.** 0.9

**Q.** What about the “Liver: vacuolation, hepatocytes, microvesicular, group average score” value (Zucker FA/FA Rat Model [8]; severity score 0-5) of the same compound?
**A.** 2.6

**Q.** What about the “Pancreas: fibrosis, islets, group average score” value (Zucker FA/FA Rat Model [8]; severity score 0-5) of the same compound?
**A.** 2.1

**Q.** What about the “Pancreas: hemorrhage/hemosiderin, islets, group average score” value (Zucker FA/FA Rat Model [8]; severity score 0-5) of the same compound?
**A.** 1.1

**Q.** What about the “Pancreas: hypertrophy, islets, group average score” value (Zucker FA/FA Rat Model [8]; severity score 0-5) of the same compound?
**A.** 3.8

**Q.** And the “Pancreas: islet cell degeneration, group average score” value (Zucker FA/FA Rat Model [8]; severity score 0-5)?
**A.** 1.4

**Q.** And the “Pancreas: mononuclear cell infiltrate, islets, group average score” value (Zucker FA/FA Rat Model [8]; severity score 0-5)?
**A.** 1.0

**Q.** With `N[C@@H](CC(=O)N1CCn2c(nnc2C(F)(F)F)C1)Cc1cc(F)c(F)cc1F` [Sitagliptin phosphate monohydrate, 7-[(3R)-3-amino-1-oxo-4-(2,4,5-trifluorophenyl)buty]-5,6,7,8-tetrahydro-3-(trifluoromethyl)-1,2,4-triazolo[4,3-a]pyrazine phosphate (1:1) monohydrate] as the compound, how does the Solubility in water [9] read?
**A.** soluble in water
